Measured values: PubChem BioAssay (NCI)
Where “and” joins values, the source holds several entries; their conditions need not be identical. Equal values may be shown once.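 Method: 48-hour compound exposure of cells in 96-well plates, five concentrations, linear interpolation of endpoints. Here, GI50 denotes the concentration required for 50% inhibition of growth. TGI marks complete inhibition of growth.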

Experiments:
Test in all cases: growth of human tumour cells (NCI), 48 h
SNB-19 CNS = tested on: SNB-19 CNS
T-47D breast = tested on: T-47D breast
MOLT-4 leukemia = tested on: MOLT-4 leukemia
COLO 205 colon = tested on: COLO 205 colon
IGROV1 ovarian = tested on: IGROV1 ovarian
UACC-257 melanoma = tested on: UACC-257 melanoma
SR leukemia = tested on: SR leukemia
A549 NSCLC = tested on: A549 NSCLC
HCT-15 colon = tested on: HCT-15 colon
HOP-62 NSCLC = tested on: HOP-62 NSCLC

Compound | GI50 (SNB-19 CNS) [µM] | TGI (SNB-19 CNS) | GI50 (T-47D breast) | TGI (T-47D breast) | GI50 (MOLT-4 leukemia) [nM] | TGI (MOLT-4 leukemia) [µM] | GI50 (COLO 205 colon) [nM] | TGI (COLO 205 colon) | GI50 (IGROV1 ovarian) [nM] | TGI (IGROV1 ovarian) | GI50 (UACC-257 melanoma) [nM] | TGI (UACC-257 melanoma) | GI50 (SR leukemia) [nM] | TGI (SR leukemia) [µM] | GI50 (A549 NSCLC) | TGI (A549 NSCLC) | GI50 (HCT-15 colon) [nM] | TGI (HCT-15 colon) [µM] | GI50 (HOP-62 NSCLC) [nM] | TGI (HOP-62 NSCLC)
C=C1C(=O)O[C@H]2[C@H]1CC/C(COC(=O)C(=O)c1cn(Cc3ccccc3)c3ccccc13)=C\CC[C@@]1(C)O[C@@H]21 | 7.21 | 25.9 µM | 2.04 µM | 4.85 µM | 2350 | 6.83 | 2080 | 4.46 µM | 1920 | 3.84 µM | 2160 | 5.21 µM | 1000 | > 100 | 2.13 µM | 6.35 µM | 1450 | 3.69 | 2030 | 5.51 µM
Cc1cn(C2CC(N(O)Cc3ccccc3)C(CO[Si](C)(C)C(C)(C)C)O2)c(=O)[nH]c1=O (stereo unspecified) |  | > 100 µM and 33.2 µM | 61.7 µM and 18.6 µM | > 100 µM and 33.6 µM |  | > 100 |  | 35.8 µM and 32.6 µM |  | 44.8 µM and 29.4 µM |  | 67.5 µM and 30 µM |  | 89.4 | 35.8 µM and 16.7 µM | > 100 µM and 31.5 µM |  | 96.6 |  | 36.5 µM and 29.9 µM
COc1cc2nc3cc([N+](=O)[O-])ccc3c(NCCCNCCO)c2cc1OC | 0.137 | 0.495 µM | 0.205 µM | 0.531 µM | 244 | 5.4 | 162 | 0.351 µM | 225 | 0.672 µM | 342 | 0.951 µM | 238 | 1.71 | 0.255 µM | 0.635 µM | 3590 | 19.5 | 146 | 0.422 µM
Cc1cccc(N2CCN(C(=S)c3ccc4c(c3)OCO4)CC2)c1 | 1.64 | > 100 µM | 0.934 µM | > 100 µM | 15800 | > 100 | 582 | 4.9 µM | 1210 | > 100 µM | > 100000 | > 100 µM | 557 | > 100 | 1.07 µM | > 100 µM | 625 | > 100 | 883 | > 100 µM
COc1cc2c3c(n(CCCNC(=O)OCC4c5ccccc5-c5ccccc54)c(=O)c2cc1OC)-c1cc2c(cc1/C3=C\CCNC(=O)OCC1c3ccccc3-c3ccccc31)OCO2 | > 29.6 | > 50 µM | > 50 µM | > 50 µM | 5450 | > 50 | > 28000 | > 50 µM | 915 | 4.93 µM | > 50000 | > 50 µM | 3290 | 21 | > 26.6 µM | > 50 µM | > 50000 | > 50 |  | > 24.3 µM
C=C1C(=O)O[C@@H]2/C=C(\C)CC/C=C(/COC(C)=O)C[C@@H](OC(C)=O)[C@@H]12 |  | > 95.9 µM |  | 26.6 µM |  | 16.9 |  | 14.1 µM |  | 28.1 µM |  | 32.2 µM |  | 7.39 |  | > 100 µM |  | 12.4 |  | 72.6 µM
COC(=O)C1=CNC=C(C(=O)OC)C1C1=CC(=O)C(C)=CC1=O | 18.5 | 36.7 µM | 17.9 µM | 44.6 µM | 2160 | 5.9 | 22900 | 55.1 µM | 14300 | 27.5 µM | 16400 | 31.1 µM | 9370 | 43.5 | 19.6 µM | 42.1 µM | 17000 | 32.6 | 14800 | 28.2 µM
COC1=CC(=O)c2nc(-c3cccc(C)n3)[nH]c2C1=O | 23.3 | 60.6 µM | 15.8 µM | 58.1 µM | 64700 | > 100 | 26500 | 67.7 µM | 20500 | 47 µM | 65300 | > 100 µM | 30600 | > 100 | 19.1 µM | 39.1 µM | 52500 | > 100 | 18700 | 35.9 µM
NS(=O)(=O)c1ccc(N=Nc2c(O)[nH]c3ccc(-c4cnco4)cc23)cc1 | > 25 | > 25 µM | > 25 µM | > 25 µM | > 25000 | > 25 | > 25000 | > 25 µM | > 25000 | > 25 µM | > 25000 | > 25 µM | 4990 | > 25 | > 25 µM | > 25 µM | > 25000 | > 25 | > 25000 | > 25 µM
CN1C(=O)c2cccc3cc([N+](=O)[O-])cc(c23)C1=O |  | > 10 µM |  | > 10 µM |  | > 10 |  | > 10 µM |  | > 10 µM |  | > 10 µM |  | > 10 |  | > 10 µM |  | > 10 |  | > 10 µM
Oc1cccnc1CN1CCCCC1 |  | > 100 µM |  | > 100 µM |  | > 100 |  | > 100 µM |  | > 100 µM |  | > 100 µM |  | > 100 |  | > 100 µM |  | > 100 |  | > 100 µM
COC(C(O)CO)C(O)C(O)C(=O)NNc1ccccc1 (stereo unspecified) |  | > 100 µM |  | > 100 µM |  | > 100 |  | 28.7 µM |  | > 100 µM |  | > 100 µM |  | > 100 |  | > 100 µM |  | > 100 |  | > 100 µM
COc1ccccc1CNCCCN1C(=O)c2ccc3c4c(ccc(c24)C1=O)C(=O)N(CCCOCCCCOCCCN)C3=O | 1.71 | 4.87 µM | 0.926 µM | 3.34 µM | 538 | 2.55 | 233 | 0.454 µM | 1250 | 3.67 µM | 272 | 0.892 µM | 348 | 3.87 | 1.22 µM | 2.82 µM | 888 | 3.3 | 1320 | 2.73 µM
O=C(O)C1OC(n2cc(F)c(=O)[nH]c2=O)CC1O (stereo unspecified) |  | > 100 µM |  | > 100 µM |  | > 56.2 |  | > 100 µM |  | > 100 µM |  | > 100 µM |  | > 100 |  | > 100 µM |  | > 100 |  | > 89.2 µM
O=C(N/N=C/c1ccc(Cl)cc1)c1ccc(C(F)(F)F)nc1Nc1cccc(C(F)(F)F)c1 | 2.61 | 13 µM | 2.06 µM | 10.7 µM | 731 | 5.3 | 1800 | 4.31 µM | 2400 | 10.5 µM | 2430 | 8.99 µM | 879 | 5.71 | 2.89 µM | 9.61 µM | 855 | 12.2 | 2470 | 10.9 µM
O=C(NC1=CC(=O)c2ccccc2C1=O)c1ccccc1 | 2.9 | 16.4 µM | 0.777 µM | 2.68 µM | 2040 | 6.22 | 1800 | 3.31 µM | 1260 | 2.85 µM | 1220 | 2.57 µM | 709 | 4.85 | 2.91 µM | 16.4 µM | 549 | 5.6 | 2760 | 16 µM
COC(=O)[C@H](C)NC(=O)NC(=O)NC(=O)CI | 19.8 | 43.1 µM | 7.46 µM | 32.2 µM | 2210 | 5.17 | 2540 | 6.49 µM | 17100 | 35.4 µM | 15800 | 29.9 µM | 2430 | 5.94 | 20 µM | 36.3 µM | 5260 | 18 | 17200 | 32.6 µM
N#C/C(=C1C=C(Br)/C(=N\O)C=C\1Cl)c1cccc2ccccc12 |  | 32.1 µM |  | 12.9 µM |  | 17.6 |  | 5.86 µM |  | > 100 µM |  | 20.5 µM |  | 13.8 |  | 26 µM |  | 25.6 |  | 26.4 µM
